biological target: human PDE10A (Homo sapiens (Human), UniProt Q9Y233); test: human PDE10A full length Scintillation Proximity Assay (SPA); format: biochemical; conditions: PDE10A full length enzyme, 50 nM cGMP / [3H]-cGMP substrate, 20 minutes at room temperature
Method: The following test was carried out in order to determine the activity of the compounds of the present invention. PDE10 activity of the compounds of the present invention was determined using a Scintillation Proximity Assay (SPA)-based method similar to the one previously described (Fawcett, L. et al., Proc Natl Acad Sci USA (2000) 97(7):3702-3707).
The human PDE10A full length assay was performed in 96-well micro titer plates. The reaction mixture of 50 μl contained 20 mM HEPES pH=7.5/10 mM MgCl2/0.05 mg/ml BSA (Sigma cat. # A-7906), 50 nM cGMP (Sigma, cat. # G6129) and 50 nM [3H]-cGMP (GE Healthcare, cat. # TRK392 S.A. 13.2 Ci/mmol), 3.75 ng/well PDE10A enzyme (Enzo Life Science, Lausen, Switzerland cat # SE-534) with or without a specific test compound. A range of concentrations of the potential inhibitor was used to generate data for calculating the concentration of inhibitor resulting in 50% of the effect (e.g. IC50, the concentration of the competitor inhibiting PDE10A activity by 50%). Non-specific activity was tested without the enzyme. The reaction was initiated by the addition of the substrate solution (cGMP and [3H]-cGMP) and allowed to progress for 20 minutes at room temperature. The reaction was terminated by adding 25 μl of YSi-SPA scintillation beads (GE Healthcare, cat. # RPNQ0150) in 18 mM zinc sulphate solution (stop reagent). After 1 h under shaking, the plate was centrifuged one minute at 170 g to allow beads to settle. Afterwards, radioactive counts were measured on a Perkin Elmer Top-Count Scintillation plate reader.

Sequence of human PDE10A (Q9Y233 other isoform, or with tags, fused parts or gaps): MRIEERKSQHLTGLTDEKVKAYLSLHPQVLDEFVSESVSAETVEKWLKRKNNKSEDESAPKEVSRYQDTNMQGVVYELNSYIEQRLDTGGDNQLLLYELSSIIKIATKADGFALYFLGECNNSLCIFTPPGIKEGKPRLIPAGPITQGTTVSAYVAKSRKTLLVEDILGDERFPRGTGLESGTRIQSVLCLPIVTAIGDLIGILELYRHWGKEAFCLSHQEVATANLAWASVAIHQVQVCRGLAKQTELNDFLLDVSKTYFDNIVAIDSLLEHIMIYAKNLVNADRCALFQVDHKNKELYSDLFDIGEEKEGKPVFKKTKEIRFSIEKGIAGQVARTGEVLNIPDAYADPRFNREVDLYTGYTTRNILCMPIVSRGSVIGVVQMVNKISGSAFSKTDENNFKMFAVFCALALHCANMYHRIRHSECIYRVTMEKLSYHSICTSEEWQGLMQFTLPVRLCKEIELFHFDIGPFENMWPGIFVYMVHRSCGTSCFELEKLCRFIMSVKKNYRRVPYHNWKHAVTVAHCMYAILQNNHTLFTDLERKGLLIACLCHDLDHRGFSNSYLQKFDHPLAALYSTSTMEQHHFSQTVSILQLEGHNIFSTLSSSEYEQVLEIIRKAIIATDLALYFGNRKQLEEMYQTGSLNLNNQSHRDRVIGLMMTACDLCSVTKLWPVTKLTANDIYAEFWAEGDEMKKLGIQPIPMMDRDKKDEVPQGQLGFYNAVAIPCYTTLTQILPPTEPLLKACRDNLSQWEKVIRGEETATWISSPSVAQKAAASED

SMILES | IC50 [nM]
Cc1ncc(C)n2nc(CCc3nc(N4CC5CCC5C4)nn3C)nc12 (centres unmarked) [Example 99, 2-{2-[5-(3-Aza-bicyclo[3.2.0]hept-3-yl)-2-methyl-2H-[1,2,4]triazol-3-yl]-ethyl}-5,8-dimethyl-[1,2,4]triazolo[1,5-a]pyrazine] | 273
CCn1nc(N2CCCC2)nc1CCc1nc2ccccc2nc1C [Example 33, 2-[2-(2-Ethyl-5-pyrrolidin-1-yl-2H-[1,2,4]triazol-3-yl)-ethyl]-3-methyl-quinoxaline] | 55
Cn1nc(N2CCCC2)nc1CCc1nc2c(Cl)cc(C(F)(F)F)cn2n1 [Example 54, 8-Chloro-2-(2-(1-methyl-3-(pyrrolidin-1-yl)-1H-1,2,4-triazol-5-yl)ethyl)-6-(trifluoromethyl)-[1,2,4]triazolo[1,5-a]pyridine] | 105
Cc1nc2ccccc2nc1/C=C/c1nc(N2CCCC2)nn1C [Example 15, 2-Methyl-3-[2-(2-methyl-5-pyrrolidin-1-yl-2H-[1,2,4]triazol-3-yl)-vinyl]-quinoxaline] | 105
Cn1nc(N2CCCC2)nc1CCc1nc2ccc3ccccc3n2n1 [Example 56, 2-(2-(1-Methyl-3-(pyrrolidin-1-yl)-1H-1,2,4-triazol-5-yl)ethyl)-[1,2,4]triazolo[1,5-a]quinoline] | 29.2
CCn1nc(N2CCCC2)nc1/C=C/c1nc2nc(C)cc(C)n2n1 [Example 3, 2-[2-(2-Ethyl-5-pyrrolidin-1-yl-2H-[1,2,4]triazol-3-yl)-vinyl]-5,8-dimethyl-[1,2,4]triazolo[1,5-a]pyrimidine] | 205

Stronger by IC50, values ahead:

IC50 [nM] | SMILES
2.13 | Cc1c(Cl)ccc2nc(CCc3nc(N4CCCC4)n(C)n3)nn12 [Example 28, 6-Chloro-5-methyl-2-[2-(1-methyl-5-pyrrolidin-1-yl-1H-[1,2,4]triazol-3-yl)-ethyl]-[1,2,4]triazolo[1,5-a]pyridine]
6.72 | Cc1ncc(C)n2nc(/C=C/c3nc(N4CCCC4)n(C)n3)nc12 [Example 17, 5,8-Dimethyl-2-[2-(1-methyl-5-pyrrolidin-1-yl-1H-[1,2,4]triazol-3-yl)-vinyl]-[1,2,4]triazolo[1,5-a]pyrazine]
0.89 | Cc1c(Cl)cc(C(F)F)c2nc(CCc3nc(N4CCCC4)nn3C)nn12 [Example 130, 6-Chloro-8-(difluoromethyl)-5-methyl-2-(2-(1-methyl-3-(pyrrolidin-1-yl)-1H-1,2,4-triazol-5-yl)ethyl)-[1,2,4]triazolo[1,5-a]pyridine]
0.36 | Cc1c(Cl)cc(OC2CCOCC2)c2nc(CCc3nc(N4CCCC4)nn3C)nn12 [Example 120, 6-Chloro-5-methyl-2-(2-(1-methyl-3-(pyrrolidin-1-yl)-1H-1,2,4-triazol-5-yl)ethyl)-8-(tetrahydro-2H-pyran-4-yloxy)-[1,2,4]triazolo[1,5-a]pyridine]
5.46 | Cc1ncc(C)n2nc(CCc3nc(N4CC[C@H](C)C4)nn3C)nc12 [Example 115, 5,8-Dimethyl-2-{2-[2-methyl-5-((S)-3-methyl-pyrrolidin-1-yl)-2H-[1,2,4]triazol-3-yl]-ethyl}-[1,2,4]triazolo[1,5-a]pyrazine]
5.57 | CCn1nc(N2CCCC2)nc1CCc1nc2c(C)ncc(C)n2n1 [Example 2, 2-[2-(2-Ethyl-5-pyrrolidin-1-yl-2H-[1,2,4]triazol-3-yl)-ethyl]-5,8-dimethyl-[1,2,4]triazolo[1,5-a]pyrazine]
6.84 | Cc1c(C#N)cc(C(F)(F)F)c2nc(CCc3nc(N4CCCC4)nn3C)nn12 [Example 83, 5-Methyl-2-(2-(1-methyl-3-(pyrrolidin-1-yl)-1H-1,2,4-triazol-5-yl)ethyl)-8-(trifluoromethyl)-[1,2,4]triazolo[1,5-a]pyridine-6-carbonitrile]
10.7 | Cc1nc2cc(Cl)ccc2nc1C#Cc1nc(N2CCCC2)nn1C [Example 135, 6-Chloro-3-methyl-2-(2-methyl-5-pyrrolidin-1-yl-2H-[1,2,4]triazol-3-ylethynyl)-quinoxaline]
